Earlier results, collected in publication PMC12500691 (Frontiers in Cellular and Infection Microbiology, 2025).

Test system: NETosis
Details: cited from earlier work

CC[C@H](C)[C@H](NC(=O)[C@H](CCCCN)NC(=O)[C@H](CCC(=O)O)NC(=O)[C@H](CCCCN)NC(=O)[C@H](CO)NC(=O)[C@H](CCCCN)NC(=O)[C@H](CCCNC(=N)N)NC(=O)[C@H](Cc1ccccc1)NC(=O)[C@H](Cc1ccccc1)NC(=O)[C@H](CC(=O)O)NC(=O)CNC(=O)[C@H](CC(C)C)NC(=O)[C@@H](N)CC(C)C)C(=O)NCC(=O)N[C@@H](CCCCN)C(=O)N[C@@H](CCC(=O)O)C(=O)N[C@@H](Cc1ccccc1)C(=O)N[C@@H](CCCCN)C(=O)N[C@@H](CCCNC(=N)N)C(=O)N[C@H](C(=O)N[C@H](C(=O)N[C@@H](CCC(N)=O)C(=O)N[C@@H](CCCNC(=N)N)C(=O)N[C@H](C(=O)N[C@@H](CCCCN)C(=O)N[C@@H](CC(=O)O)C(=O)N[C@@H](Cc1ccccc1)C(=O)N[C@@H](CC(C)C)C(=O)N[C@@H](CCCNC(=N)N)C(=O)N[C@@H](CC(N)=O)C(=O)N[C@@H](CC(C)C)C(=O)N[C@H](C(=O)N1CCC[C@H]1C(=O)N[C@@H](CCCNC(=N)N)C(=O)N[C@H](C(=O)N[C@@H](CCC(=O)O)C(=O)N[C@@H](CO)C(=O)O)[C@@H](C)O)C(C)C)[C@@H](C)CC)C(C)C)[C@@H](C)CC [LL-37]
effect on NETosis: promote NETosis
